The target in test [1] is T1, APOL1 G2 (Homo sapiens, UniProt O14791, DEL388-389).
T1 construct: expressed in transfected cells; host or cells: HEK293/T-REx APOL1 G2 clone #2, doxycycline-inducible
T1 sequence (O14791 with tags, fused parts or gaps DEL388-389): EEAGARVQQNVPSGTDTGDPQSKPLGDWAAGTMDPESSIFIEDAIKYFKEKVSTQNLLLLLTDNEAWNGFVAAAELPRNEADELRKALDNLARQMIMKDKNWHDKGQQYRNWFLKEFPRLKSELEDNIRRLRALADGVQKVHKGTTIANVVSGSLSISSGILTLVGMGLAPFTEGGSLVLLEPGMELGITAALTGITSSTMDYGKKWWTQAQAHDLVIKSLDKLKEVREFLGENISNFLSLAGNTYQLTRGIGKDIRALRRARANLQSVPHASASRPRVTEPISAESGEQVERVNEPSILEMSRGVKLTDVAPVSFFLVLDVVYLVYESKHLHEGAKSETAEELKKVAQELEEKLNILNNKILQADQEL
The test is described as follows: APOL1 G2 HEK293 rescue of cell death caused by overexpression of APOL1 (CellTiter-Glo). Type of test: cell-based. The following applies: HEK293/T-REx APOL1 G2 clone #2, doxycycline induction, 17 hours, CellTiter-Glo luminescence; reversal of cell death; geometric mean of at least 2 assay runs. Put shortly:
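Viability read by CellTiter-Glo luminescence after 17 h, 37 °C, in HEK293/T-REx cells expressing APOL1 G2 on 6 ng/mL doxycycline, 5,000 cells/well. Compounds tested as duplicate 8-point, 3-fold dilutions, 0.5% DMSO final; four-parameter logistic EC50, usually geometric mean of ≥2 days.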
Background: Cellular ATP, detected with luciferase, serves as a proxy for viable cell number.

For test [2], the target named is T1, APOL1 G2. The test is described as follows: APOL1 G2 FLIPR calcium influx assay (HEK T-REx/GCaMP6f/APOL1 G2 K6.3 cells). Type of test: cell-based. The settings on record: HEK293 clone expressing GCaMP6f, doxycycline-induced APOL1 G2; prevention of calcium influx; geometric mean of at least 2 assay runs. Put shortly:
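Cells express GCaMP6f stably and APOL1 G2 after a 6 h doxycycline induction. Duplicate 8-point dilutions sit 10 min at room temperature in Ca2+-free Tyrode's (pH 7.4), then Ca2+ is injected to 5 mM final and the FLIPR signal recorded. AC50s are geometric means across ≥2 days.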

The structures appear in SMILES notation.

What is called EC50 is the concentration that produces a half-maximal response. A word on the AC50: it is the concentration giving half of the maximal activity seen.

Consider `C[C@@H]1C[C@H](COc2ccc(S(C)(=O)=O)cc2)CN1C1CCc2c(C#N)cc(Cl)cc2C1` (single isomer, unassigned) [Compound 9, (6S or 6R)-3-chloro-6-[(2R,4S)-4-[(4-methanesulfonylphenoxy)methyl]-2-methylpyrrolidin-1-yl]-5,6,7,8-tetrahydronaphthalene-1-carbonitrile], for which, on APOL1 G2 [1], the concentration for a half-maximal effect (EC50) was 516 nM. The AC50 at APOL1 G2 [2] came to 1280 nM.
For `C[C@@H]1C[C@H](COc2ccc(S(=O)(=O)CCS(C)(=O)=O)cc2)CN1C1CCc2ccc(Cl)cc2C1` (stereo partly drawn) [Compound 49, (2R,4S)-1-[7-chloro-1,2,3,4-tetrahydronaphthalen-2-yl]-4-{[4-(2-methanesulfonylethanesulfonyl)phenoxy]methyl}-2-methylpyrrolidine] the same measures were 193 nM and 558 nM.
The matching figures for `C[C@@H]1C[C@H](COc2ccc(S(C)(=O)=O)cc2)CN1C1CCc2c(C#N)cc(Cl)cc2C1` (single isomer, unassigned) [Compound 7, (6R or 6S)-3-chloro-6-[(2R,4S)-4-[(4-methanesulfonylphenoxy)methyl]-2-methylpyrrolidin-1-yl]-5,6,7,8-tetrahydronaphthalene-1-carbonitrile]: 195 nM and 1540 nM.
Take `C[C@@H]1CN(CCc2cc(C#N)cc(C#N)c2)C[C@H]1COc1ccc(S(C)(=O)=O)nc1` [Compound 74, 5-{2-[(3S,4S)-3-{[(6-methanesulfonylpyridin-3-yl)oxy]methyl}-4-methylpyrrolidin-1-yl]ethyl}benzene-1,3-dicarbonitrile]: at APOL1 G2 [1], the EC50 came out at 665 nM. Further, the concentration at half-maximal activity (AC50) on APOL1 G2 [2] was 479 nM.
Take `CS(=O)(=O)c1ccc(OC[C@@H]2CN(CCc3cccc(C#N)c3)C[C@H]2CO)cc1` [Compound 25, 3-{2-[(3S,4S)-3-(hydroxymethyl)-4-[(4-methanesulfonylphenoxy)methyl]pyrrolidin-1-yl]ethyl}benzonitrile]: the EC50 at APOL1 G2 [1] is 1010 nM. The concentration at half-maximal activity (AC50) at APOL1 G2 [2] was found to be 343 nM.
Consider `CC(=O)N(C)CCS(=O)(=O)c1ccc(OC[C@@H]2CN(CCc3cc(Cl)cc(C#N)c3)C[C@H]2C)cc1` [Compound 75, N-[2-(4-{[(3S,4S)-1-[2-(3-chloro-5-cyanophenyl)ethyl]-4-methylpyrrolidin-3-yl]methoxy}benzenesulfonyl)ethyl]-N-methylacetamide], for which the 50% effective concentration (EC50) at APOL1 G2 [1] is 70.6 nM. At APOL1 G2 [2], the half-maximal activity concentration (AC50) came out at 419 nM.
For the compound `CN1CC(S(=O)(=O)c2ccc(OC[C@@H]3CN(CCc4cccc(Cl)c4)CCN3)cc2)C1` [Compound 108, (3S)-1-[2-(3-chlorophenyl)ethyl]-3-({4-[(1-methylazetidin-3-yl)sulfonyl]phenoxy}methyl)piperazine], on APOL1 G2 [1], the EC50 came out at 664 nM. At APOL1 G2 [2], the AC50 is 337 nM.
For `C[C@@H]1C[C@H](COc2ccc(S(C)(=O)=O)cc2)CN1C1CCc2c(C#N)cccc2C1` (single isomer, unassigned) [Compound 135, (6S or 6S)-6-[(2R,4S)-4-[(4-methanesulfonylphenoxy)methyl]-2-methylpyrrolidin-1-yl]-5,6,7,8-tetrahydronaphthalene-1-carbonitrile] the same measures were 84.2 nM and 576 nM.
On to `C[C@@H]1CN(C(CO)Cc2cccc(Cl)c2)C[C@H]1COc1ccc(S(C)(=O)=O)cc1` (stereo partly drawn) [Compound 115, 3-(3-chlorophenyl)-2-[(3S,4S)-3-[(4-methanesulfonylphenoxy)methyl]-4-methylpyrrolidin-1-yl]propan-1-ol], for which the concentration giving a half-maximal response (EC50) at APOL1 G2 [1] was 1830 nM. Further, on APOL1 G2 [2], the AC50 was 470 nM.
As for `C[C@@H]1C[C@H](COc2ccc(S(=O)(=O)CCO)cc2)CN1C1CCc2ccc(C#N)cc2C1` (single isomer, unassigned) [Compound 59, (7R or 7S)-7-[(2R,4S)-4-{[4-(2-hydroxyethanesulfonyl)phenoxy]methyl}-2-methylpyrrolidin-1-yl]-5,6,7,8-tetrahydronaphthalene-2-carbonitrile], the EC50 at APOL1 G2 [1] worked out at 380 nM. In addition, the half-maximal activity concentration (AC50) at APOL1 G2 [2] worked out at 794 nM.
For `C[C@@H]1C[C@H](COc2ccc(S(=O)(=O)CCCS(C)(=O)=O)cc2)CN1C1CCc2ccc(Cl)cc2C1` (single isomer, unassigned) [Compound 54, (2R,4S)-1-[(2S or 2R)-7-chloro-1,2,3,4-tetrahydronaphthalen-2-yl]-4-{[4-(3-methanesulfonylpropanesulfonyl)phenoxy]methyl}-2-methylpyrrolidine] the same measures were 54.8 nM and 857 nM.
The matching figures for `C[C@@H]1C[C@H](COc2ccc(S(C)(=O)=O)cc2)CN1C1CCc2c(C#N)cc(Cl)cc2C1` (single isomer, unassigned) [Compound 8, (6R or 6S)-3-chloro-6-[(2R,4S)-4-[(4-methanesulfonylphenoxy)methyl]-2-methylpyrrolidin-1-yl]-5,6,7,8-tetrahydronaphthalene-1-carbonitrile]: 150 nM and 1070 nM.
For `CC(Cc1cc(Cl)cc(C#N)c1)N1C[C@@H](COc2ccc(S(C)(=O)=O)cc2)C[C@H]1C` (single isomer, unassigned) [Compound 11, 3-chloro-5-[(2R or 2S)-2-[(2R,4S)-4-[(4-methanesulfonylphenoxy)methyl]-2-methylpyrrolidin-1-yl]propyl]benzonitrile] the same measures were 137 nM and 1130 nM.
As for `C[C@@H]1C[C@H](COc2ccc(S(=O)(=O)CCCS(C)(=O)=O)cc2)CN1C1CCc2ccc(C#N)cc2C1` (single isomer, unassigned) [Compound 36, (7S or 7R)-7-[(2R,4S)-4-{[4-(3-methanesulfonylpropanesulfonyl)phenoxy]methyl}-2-methylpyrrolidin-1-yl]-5,6,7,8-tetrahydronaphthalene-2-carbonitrile], the concentration giving a half-maximal response (EC50) on APOL1 G2 [1] turned out to be 36.3 nM. Besides, the AC50 at APOL1 G2 [2] worked out at 714 nM.
For `CC(Cc1cc(Cl)cc(C#N)c1)N1C[C@@H](COc2ccc(S(C)(=O)=O)cc2)[C@H](C)C1` (single isomer, unassigned) [Compound 18, 3-chloro-5-[(2S or 2R)-2-[(3S,4S)-3-[(4-methanesulfonylphenoxy)methyl]-4-methylpyrrolidin-1-yl]propyl]benzonitrile] the same measures were 262 nM and 412 nM.
For the compound `C[C@@H]1C[C@H](COc2ccc(S(C)(=O)=O)cc2)CN1C1CCc2c(Cl)cccc2C1` (single isomer, unassigned) [Compound 139, (2R,4S)-1-[(2S or 2R)-5-chloro-1,2,3,4-tetrahydronaphthalen-2-yl]-4-[(4-methanesulfonylphenoxy)methyl]-2-methylpyrrolidine], at APOL1 G2 [1], the half-maximal effective concentration (EC50) came out at 260 nM. The AC50 at APOL1 G2 [2] was determined as 1260 nM.
Regarding `CC(Cc1cc(Cl)cc(C#N)c1)N1C[C@@H](COc2ccc(S(C)(=O)=O)cc2)C[C@H]1C` (single isomer, unassigned) [Compound 10, 3-chloro-5-[(2S or 2R)-2-[(2R,4S)-4-[(4-methanesulfonylphenoxy)methyl]-2-methylpyrrolidin-1-yl]propyl]benzonitrile], the EC50 on APOL1 G2 [1] turned out to be 744 nM. For the same compound, the AC50 on APOL1 G2 [2] was 1020 nM.
For `C[C@@H]1C[C@H](COc2ccc(S(=O)(=O)CCS(C)(=O)=O)cc2)CN1C1CCc2ccc(C#N)cc2C1` (single isomer, unassigned) [Compound 32] the same measures were 353 nM and 769 nM.
As to `C[C@@H]1C[C@@H](COc2ccc(S(C)(=O)=O)cc2)CN1CCc1cccc(Cl)c1` [Compound 145, (2R,4R)-1-[2-(3-chlorophenyl)ethyl]-4-[(4-methanesulfonylphenoxy)methyl]-2-methylpyrrolidine], the EC50 on APOL1 G2 [1] was 1770 nM. On APOL1 G2 [2], the AC50 worked out at 1130 nM.
Regarding `C[C@@H]1CN(C2CCc3ccc(Cl)cc3C2)C[C@H]1COc1ccc(S(C)(=O)=O)cc1` (single isomer, unassigned) [Compound 15, (3S,4S)-1-[(2S or 2R)-7-chloro-1,2,3,4-tetrahydronaphthalen-2-yl]-3-[(4-methanesulfonylphenoxy)methyl]-4-methylpyrrolidine], the EC50 on APOL1 G2 [1] turned out to be 1830 nM. Also, on APOL1 G2 [2], the AC50 was 1750 nM.
`C[C@@H]1C[C@H](COc2ccc(S(C)(=O)=O)cc2)CN1C1CCc2c(C#N)cccc2C1` (single isomer, unassigned) [Compound 134, (6R or 6S)-6-[(2R,4S)-4-[(4-methanesulfonylphenoxy)methyl]-2-methylpyrrolidin-1-yl]-5,6,7,8-tetrahydronaphthalene-1-carbonitrile]: at APOL1 G2 [1], the EC50 stood at 292 nM. For the same compound, at APOL1 G2 [2], the concentration at half-maximal activity (AC50) is 601 nM.
For `CC(=O)N(C)CCS(=O)(=O)c1ccc(OC[C@H]2C[C@@H](C)N(CCc3cc(Cl)cc(C#N)c3)C2)cc1` [Compound 66, N-[2-(4-{[(3S,5R)-1-[2-(3-chloro-5-cyanophenyl)ethyl]-5-methylpyrrolidin-3-yl]methoxy}benzenesulfonyl)ethyl]-N-methylacetamide] the same measures were 76.8 nM and 621 nM.

Values taken from patent US20260055083A1, “APOL1 INHIBITORS AND METHODS OF USE” (Maze Therapeutics, Inc., priority 2022, published 2026).
